Test results published in PMC9639651, “8-Aminoinosine and 8-Aminohypoxanthine Inhibit Purine Nucleoside Phosphorylase and Exert Diuretic and Natriuretic Activity” (The Journal of Pharmacology and Experimental Therapeutics, 2022).
Values belong to the compound of their own block, whether it stands above or below them.

What was measured:
[1] = target: T1, recombinant human purine nucleoside phosphorylase (rhPNPase) (Homo sapiens, UniProt P00491); assay: HPLC-UV enzyme kinetics, guanosine as substrate (Ki […] with inosine), competitive inhibition fit; format: biochemical
T1 construct: gene PNP
T1 sequence (P00491 1-289): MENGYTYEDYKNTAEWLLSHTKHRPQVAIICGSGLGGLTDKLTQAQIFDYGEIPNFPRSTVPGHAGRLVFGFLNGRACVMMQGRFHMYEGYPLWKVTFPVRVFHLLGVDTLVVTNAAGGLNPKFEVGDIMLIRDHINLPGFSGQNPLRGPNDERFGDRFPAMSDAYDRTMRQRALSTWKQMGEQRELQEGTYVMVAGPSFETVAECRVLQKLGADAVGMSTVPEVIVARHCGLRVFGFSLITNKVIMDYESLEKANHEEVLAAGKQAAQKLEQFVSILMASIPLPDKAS

[2] = target: T1, recombinant human purine nucleoside phosphorylase (rhPNPase); assay: HPLC-UV enzyme kinetics, competitive inhibition of inosine metabolism; also Michaelis-Menten turnover to 8-aminohypoxanthine; format: biochemical
[3] = target: T1, recombinant human purine nucleoside phosphorylase (rhPNPase); assay: biochemical
[4] = target: T1, recombinant human purine nucleoside phosphorylase (rhPNPase); assay: Michaelis-Menten kinetics by HPLC-UV; also inhibits metabolism of 8-aminoinosine; format: biochemical

Ki [1]: 20 µM
SMILES: Nc1nc2nc[nH]c(=O)c2[nH]1 [8AHX, 8-aminohypoxanthine]

Ki [2]: 35 µM
SMILES: Nc1nc2c(O)ncnc2n1[C@@H]1O[C@H](CO)[C@@H](O)[C@H]1O [8AI, 8-aminoinosine]

Ki [3]: 2.8 µM
SMILES: Nc1nc2[nH]c(N)nc2c(=O)[nH]1 [8AG, 8-aminoguanine]

SMILES: O=c1[nH]cnc2c1ncn2[C@@H]1O[C@H](CO)[C@@H](O)[C@H]1O [inosine]
Michaelis-Menten kinetics by HPLC-UV; also inhibits metabolism of 8-aminoinosine [4]: inosine competitively inhibits the metabolism of 8-aminoinosine to 8-aminohypoxanthine
